Source: PubChem BioAssay (NCI)
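Results reflect a 48-hour exposure of cells in 96-well plates to compound at five concentrations. GI50 marks 50% less growth. TGI denotes the concentration required for complete inhibition of growth.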 Peptide text beside a SMILES is read from it. * marks the point of attachment. OSu = O=C1CCC(=O)N1O*; OBn = c1ccc(CO*)cc1; Bn = c1ccc(C*)cc1

Legend:
Assay in all cases: NCI anticancer screen, dose series, 48 h
[1] = tested on: HL-60(TB) leukemia
[2] = tested on: HS 578T breast
[3] = tested on: MCF7 breast
[4] = tested on: OVCAR-4 ovarian
[5] = tested on: PC-3 prostate
[6] = tested on: SF-268 CNS
[7] = tested on: SNB-19 CNS
[8] = tested on: SR leukemia
[9] = tested on: T-47D breast

Compound | TGI [1] | TGI [2] | TGI [3] | TGI [4] | TGI [5] | TGI [6] | TGI [7] | TGI [8] | TGI [9] | GI50 [3] | GI50 [4] | GI50 [5] | GI50 [6]
Cc1nc2sccn2c1C(=O)OCCOCCOCCOCCOC(=O)c1c(C)nc2sccn12 | 34 µM | > 100 µM | > 100 µM | > 100 µM | > 100 µM | > 100 µM | > 100 µM | > 100 µM | – | – | – | – | –
CCc1cc2c(oc3c4ccccc4ccc23)c(=O)[nH]1 | > 10 µM | > 10 µM | > 10 µM | > 10 µM | > 10 µM | > 10 µM | > 10 µM | > 10 µM | – | – | – | – | –
CCOC(=O)c1ccc(NC(NC(=O)CC)(C(F)(F)F)C(F)(F)F)cc1 | > 100 µM | > 100 µM | > 100 µM | – | > 100 µM | > 100 µM | > 100 µM | > 100 µM | > 100 µM | – | – | – | –
CC(C)CC(NC(=O)C(N)CCC(=O)OCc1ccccc1)C(=O)NC(COCc1ccccc1)C(=O)NC(Cc1ccccc1)C(=O)ON1C(=O)CCC1=O (stereo unspecified) (H-E(OBn)LS(Bn)F-OSu; configuration not given here) | – | 76.1 µM | 78.5 µM | > 100 µM | 63.2 µM | > 100 µM | 95.1 µM | 85.4 µM | – | – | – | – | –
O=C(NC(CO)CO)c1ccc2cc(C(=O)N3CC(CCl)c4ccc([N+](=O)[O-])cc43)[nH]c2c1 (stereo unspecified) | > 100 µM | > 100 µM | > 100 µM | > 100 µM | > 100 µM | > 100 µM | > 100 µM | – | 64.2 µM | – | – | – | –
COC(=O)C(N)CCCC(N)C(=O)NC(C)C(=O)NC(CCC(=O)NCCCNc1ccc([N+](=O)[O-])c2[nH]c3ccccc3c(=O)c12)C(N)=O (stereo unspecified) | – | – | – | 20.2 µM | 19.8 µM | 13.8 µM | 15 µM | – | 33.9 µM | – | – | – | –
CC(CC(C)(C)[N+](C)(C)C)[N+](C)(C)C (stereo unspecified) | > 100 µM | – | > 100 µM | > 100 µM | > 100 µM | > 100 µM | > 100 µM | > 100 µM | – | – | – | – | –
O=C(NNCc1ccccc1O)c1ccccc1O | 4.17 µM | – | 80.3 µM | > 100 µM | > 100 µM | – | > 100 µM | – | 35 µM | – | – | – | –
CC(=O)N1C(OCc2ccccc2)CCN1c1ccccc1 (stereo unspecified) | > 10 µM | > 10 µM | – | > 10 µM | > 10 µM | > 10 µM | > 10 µM | > 10 µM | > 10 µM | – | – | – | –
CCCCNCC(O)c1cc(-c2ccc(C(F)(F)F)cc2)nc(-c2ccc(C(F)(F)F)cc2)c1 (stereo unspecified) | – | – | 3.54 µM | 3.93 µM | 3.05 µM | 3.89 µM | – | – | – | 1.79 µM | 2.11 µM | 1.52 µM | 1.97 µM
O=C(CC(=O)Nc1ccccc1Cl)NNC(Sc1ccccc1)c1cc(N=Nc2ccc(Br)cc2)ccc1O (stereo unspecified) | 1.1 µM | 7.18 µM | 3.22 µM | 5.98 µM | 6.21 µM | > 10 µM | > 10 µM | – | 9.57 µM | – | – | – | –
c1ccc2nn(C3CCCCO3)nc2c1 (stereo unspecified) | – | > 100 µM | > 100 µM | > 100 µM | > 100 µM | > 100 µM | > 100 µM | > 100 µM | > 100 µM | – | – | – | –
Cc1ccc(CC(=O)Nc2ccc(NC(=O)CNC(=O)/C=C/c3ccc(-c4ccccc4)cc3)cc2C(=O)c2ccccc2)cc1 | 20.7 µM | 21.1 µM | 3.69 µM | – | 4.07 µM | 7.51 µM | 20.3 µM | 4.95 µM | 3.89 µM | – | – | – | –
O=C1CC(Cl)c2c(Cl)sc(Cl)c21 (stereo unspecified) | 3.23 µM | > 27.9 µM | 2.11 µM | 10.3 µM | 5.64 µM | 5.51 µM | 24 µM | – | > 22 µM | – | – | – | –
CN(/N=C/c1ccc(Cl)c(Cl)c1)C1=NCCN1 | – | > 100 µM | 49.8 µM | > 100 µM | 38.3 µM | > 100 µM | > 100 µM | 86.7 µM | 90.8 µM | – | – | – | –
CN1N(c2ccccc2)C(=O)C2=NC=C(C#N)C(=N)C21C (stereo unspecified) | – | – | > 100 µM | > 100 µM | > 100 µM | – | > 100 µM | > 100 µM | – | – | – | – | –
C/C(=N\n1c(Cc2ccccc2)n[nH]c1=O)c1ccc([N+](=O)[O-])cc1 | > 100 µM | > 100 µM | > 100 µM | > 100 µM | > 100 µM | – | > 100 µM | – | > 100 µM | – | – | – | –
Cc1ccsc1/C=N/Nc1ccccn1 | – | > 100 µM | > 100 µM | > 100 µM | > 100 µM | > 100 µM | > 100 µM | – | > 100 µM | – | – | – | –
CCOC(=O)/C=C1/Nc2cc(F)c(F)cc2NC1=O | > 100 µM | > 100 µM | > 100 µM | > 100 µM | > 100 µM | > 100 µM | > 100 µM | – | – | – | – | – | –
Cc1ccc(NC(=O)CC(=O)N2N=C(c3ccccc3)C(N=Nc3ccc(S(=O)(=O)CCOS(=O)(=O)O)cc3)C2=O)cc1 (stereo unspecified) | > 100 µM | > 100 µM | > 100 µM | – | > 100 µM | > 100 µM | > 100 µM | > 100 µM | – | – | – | – | –
C1=C[C@]2(CCC13OCCO3)COc1ccccc12 | 38.4 µM | – | > 100 µM | > 100 µM | > 100 µM | – | > 100 µM | > 100 µM | > 100 µM | – | – | – | –
c1ccc(-c2nc3ccccc3n3nnnc23)cc1 | > 100 µM | – | > 100 µM | > 100 µM | > 100 µM | > 100 µM | > 100 µM | > 100 µM | 97.3 µM | – | – | – | –
CCCC1C(C#N)(C#N)C(C#N)=C(N)C1(C)C(C)=O (stereo unspecified) | > 100 µM | > 100 µM | > 100 µM | – | > 100 µM | > 100 µM | > 100 µM | – | > 100 µM | – | – | – | –
O=C1C=C(NCCc2cc(Br)c(O)c(Br)c2)C(=O)c2[nH]cnc21 | – | – | 48.9 µM | 94.9 µM | > 100 µM | > 100 µM | > 100 µM | > 100 µM | 88.8 µM | – | – | – | –
COc1cnnc2c(C)c(-c3ccccc3)nn12 | > 100 µM | > 100 µM | > 100 µM | > 100 µM | > 100 µM | > 100 µM | > 100 µM | – | > 100 µM | – | – | – | –
CN1CCN(c2c(O)c3c(c(O)c2Cl)C(=O)C=CC3=O)CC1 | 0.332 µM | 5.45 µM | 0.576 µM | 1.37 µM | 3.27 µM | 3.72 µM | 6.32 µM | – | 4.25 µM | – | – | – | –
